According to the supplement of paper PMC11451515:

Legend:
Assay in all cases: AUC of viability dose-response curve (% viability x log10 dose units); higher = less sensitive
Settings in all cases: 48 h
[1] = system: NOMO1
Summary of the method: (§1)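 Leukemia cells adapted to each medium (500 or 1000 cells/well, 1536-well plates) were exposed to library compounds in DMSO for 48 h at 37°C at 11 threefold doses, 47 μM to 0.79 nM. Luminescence by CellTiter-Glo One was normalised per plate to DMSO and cell-free wells, then fitted with a four-parameter log-logistic curve on log10 dose. Curves above full viability were scaled and quality-control failures removed before area under the curve was integrated by trapezoidal rule.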

[2] = system: P12-Ichikawa
Summary of the method: as §1

[3] = system: SEM cells
Summary of the method: as §1

[4] = RPMI 5 mM glucose + 10% dialyzed FBS

SMILES | AUC of viability dose-response curve ([1]; HPLM + 10% dialyzed FBS) | AUC of viability dose-response curve ([1]; RPMI 5 mM glucose + 10% FBS) | AUC of viability dose-response curve [1, 4] | AUC of viability dose-response curve ([2]; HPLM + 10% dialyzed FBS) | AUC of viability dose-response curve ([2]; RPMI 5 mM glucose + 10% FBS) | AUC of viability dose-response curve [2, 4] | AUC of viability dose-response curve ([3]; HPLM + 10% dialyzed FBS) | AUC of viability dose-response curve ([3]; RPMI 5 mM glucose + 10% FBS) | AUC of viability dose-response curve [3, 4]
Cc1ccc([S+](=O)([O-])Nc2nc3ccccc3nc2Nc2ccc3nsnc3c2)cc1 | 361 | 360 | 365 | 422 | 405 | 438 | 410 | 440 | 409
N#Cc1ccnc(Nc2cc(C3CCN(C4COC4)CC3)cc(N3CCC(F)(F)C3)n2)c1 | 430 | 429 | 426 | 455 | 441 | 439 | 424 | 415 | 408
C[C@@H](NC(=O)c1ncnc(N)c1Cl)c1ncc(C(=O)Nc2cc(C(F)(F)F)c(Cl)cn2)s1 | 451 | 460 | 453 | 461 | 449 | 448 | 470 | 467 | 467
CC1(N2CCC(n3c([C@@H]4CCCNC4)nc4ccccc43)CC2)CCCCCCC1 | 420 | 460 | 433 | 456 | 458 | 456 | 430 | 467 | 471
CC(C)c1ccc(Cn2ccc3c4c(N)nc(NC5CC5)nc4ccc32)cc1 | 339 | 409 | 384 | 343 | 392 | 368 | 343 | 383 | 390
CC[C@H](C)C(=O)O[C@H]1C[C@H](O)\C=C2\C=C/[C@H](C)[C@H](CC[C@@H](O)C[C@@H](O)CC(O)=O)[C@@H]12 | 441 | 457 | 462 | 447 | 460 | 464 | 458 | 464 | 470
C=CCc1cccc(/C=N/NC(=O)CN2CCN(Cc3ccccc3)CC2)c1O | 419 | 448 | 433 | 420 | 424 | 417 | 399 | 411 | 378
CN(C)CCN(C)C(=O)c1ccc(NC(=O)Nc2ccc(-c3nc(N4CCOCC4)c4ccn(CC(F)(F)F)c4n3)cc2)cc1 | 327 | 393 | 371 | 417 | 359 | 360 | 339 | 325 | 341
C[S+](=O)([O-])c1ccc(-c2cnc(N)c(C(=O)Nc3ccccc3)n2)cc1 | 435 | 462 | 455 | 462 | 453 | 449 | 413 | 423 | 408
CC[C@]12\C=C/CN3CC[C@]4([C@@H](N(C)C5=CC(=C(C=C45)[C@]6(C[C@H]7C[C@H](CN(C7)CC8=C6[NH]C9=C8C=CC=C9)C(C)(F)F)C(=O)OC)OC)[C@](O)([C@@H]1OC(C)=O)C(=O)OC)[C@H]23 | 256 | 221 | 250 | 189 | 176 | 212 | 215 | 179 | 196
